Earlier results on one substance are cited in US20260000626A1, “POLYMERIC NANOPARTICLES FOR LONG ACTING DELIVERY OF A PEPTIDE AND METHODS OF MAKING AND USING THEREOF” (Brown University, priority 2022, published 2026).

Data set [1] has as its target T1, GLP-1 receptor (Homo sapiens, UniProt P43220). The note with it: vs intact GLP-1.
Data set [2] concerns the target T1, GLP-1 receptor. Conditions: negligible agonistic activity.

T1 sequence (P43220 24-463, species assumed): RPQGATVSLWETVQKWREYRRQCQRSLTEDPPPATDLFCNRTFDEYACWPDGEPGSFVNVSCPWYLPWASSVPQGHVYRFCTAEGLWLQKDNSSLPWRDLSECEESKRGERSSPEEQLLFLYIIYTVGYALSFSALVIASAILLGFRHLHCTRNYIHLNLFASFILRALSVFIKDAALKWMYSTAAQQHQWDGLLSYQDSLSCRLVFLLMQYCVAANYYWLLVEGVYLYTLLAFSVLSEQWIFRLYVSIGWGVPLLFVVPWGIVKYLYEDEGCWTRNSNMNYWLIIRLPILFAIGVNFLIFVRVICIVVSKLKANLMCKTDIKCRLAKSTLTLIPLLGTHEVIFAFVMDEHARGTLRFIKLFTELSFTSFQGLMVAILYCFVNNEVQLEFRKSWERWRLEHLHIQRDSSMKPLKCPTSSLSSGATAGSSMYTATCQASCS

GLP-1(9-36)-NH2: the “lower binding affinity compared to the intact peptide” value in data set [1] is 100 fold. In data set [2], the “decrease in agonistic activity” value is above 10000 fold.
